Reference: paper PMC12150326 (The Journal of Organic Chemistry, 2025)
Like-named read-outs stand apart in the source and are kept apart here.

Tests used:
Type in all cases: cell-based, human
HOP-92 = tested on: HOP-92
Summary of the method: (§1)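 Both axial enantiomers of the parent and of the iso series were evaluated in the NCI cancer cell panel at doses of 100 μM, 10 μM, 1 μM, 0.1 μM and 0.01 μM.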

T-47D = tested on: T-47D
Summary of the method: as §1

RPMI-8226 = tested on: RPMI-8226
Summary of the method: as §1

HCC-2998 = tested on: HCC-2998
Summary of the method: as §1

MDA-MB-231/ATCC = tested on: MDA-MB-231/ATCC
Summary of the method: as §1

OVCAR-4 = tested on: OVCAR-4
Summary of the method: as §1

SK-MEL-2 = tested on: SK-MEL-2
Summary of the method: as §1

MCF7 = tested on: MCF7
Summary of the method: as §1

OVCAR-8 = tested on: OVCAR-8
Summary of the method: as §1

CAKI-1 = tested on: CAKI-1
Summary of the method: as §1

UACC-257 = tested on: UACC-257
Summary of the method: as §1

MDA-MB-435 = tested on: MDA-MB-435
Summary of the method: (§2)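 First, compounds went into the NCI-60 cell panel. Next, they were dosed at 0.01, 0.1, 1, 10 and 100 μM. Finally, TGI levels fed a COMPARE analysis against prior tubulin-inhibitor data.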

LOX IMVI = tested on: LOX IMVI
Summary of the method: as §2

NCI/ADR-RES = tested on: NCI/ADR-RES
Summary of the method: as §1

MALME-3M = tested on: MALME-3M
Summary of the method: as §1

NCI-H226 = tested on: NCI-H226
Summary of the method: as §1

U251 = tested on: U251
Summary of the method: as §1

SNB-19 = tested on: SNB-19
Summary of the method: as §2

NCI-H23 = tested on: NCI-H23
Summary of the method: as §1

SK-MEL-5 = tested on: SK-MEL-5
Summary of the method: as §1

786-0 = tested on: 786-0
Summary of the method: as §1

SN12C = tested on: SN12C
Summary of the method: as §1

HL-60(TB) = tested on: HL-60(TB)
Summary of the method: as §2

ACHN = tested on: ACHN
Summary of the method: as §2

NCI 60 cell lines = tested on: NCI 60 cell lines
Summary of the method: as §1

MDA-MB-468 = tested on: MDA-MB-468
Summary of the method: as §1

COc1cc(C)c(-c2ccc(=O)c(OC)cc2C)c(OC)c1OC (single isomer, unassigned) [(aS)-iso-6]
Log10GI50 (HOP-92): -4.99 Molar | Log10LC50 (HOP-92): > -4.00 Molar | Log10TGI (HOP-92): > -4.00 Molar | GI50 (HOP-92; Homo sapiens): 10.2 µM | Log10GI50 (HOP-92; […]): -4.99 Molar | Log10GI50 (T-47D): -4.58 Molar | Log10LC50 (T-47D): > -4.00 Molar | Log10TGI (T-47D): > -4.00 Molar | GI50 (T-47D; Homo sapiens, T47D): 26.3 µM | Log10GI50 (T-47D; […]): -4.58 Molar | Log10GI50 (RPMI-8226): -4.38 Molar | Log10LC50 (RPMI-8226): > -4.00 Molar | Log10TGI (RPMI-8226): > -4.00 Molar | GI50 (RPMI-8226; Homo sapiens): 41.7 µM | Log10GI50 (RPMI-8226; […]): -4.38 Molar | Log10GI50 (HCC-2998): -4.48 Molar | Log10LC50 (HCC-2998): > -4.00 Molar | Log10TGI (HCC-2998): > -4.00 Molar | GI50 (HCC-2998; Homo sapiens): 33.1 µM | Log10GI50 (HCC-2998; […]): -4.48 Molar | Log10GI50 (MDA-MB-231/ATCC): -4.63 Molar | Log10LC50 (MDA-MB-231/ATCC): > -4.00 Molar | Log10TGI (MDA-MB-231/ATCC): > -4.00 Molar | GI50 (MDA-MB-231/ATCC; Homo sapiens): 23.4 µM | Log10GI50 (MDA-MB-231/ATCC; […]): -4.63 Molar | Log10GI50 (OVCAR-4): -4.04 Molar | Log10LC50 (OVCAR-4): > -4.00 Molar | Log10TGI (OVCAR-4): > -4.00 Molar | GI50 (OVCAR-4; Homo sapiens): 91.2 µM | Log10GI50 (OVCAR-4; […]): -4.04 Molar | Log10GI50 (SK-MEL-2): -4.69 Molar | Log10LC50 (SK-MEL-2): > -4.00 Molar | Log10TGI (SK-MEL-2): > -4.00 Molar | GI50 (SK-MEL-2; Homo sapiens): 20.4 µM | Log10GI50 (SK-MEL-2; […]): -4.69 Molar | Log10GI50 (MCF7): -4.60 Molar | Log10LC50 (MCF7): > -4.00 Molar | Log10TGI (MCF7): > -4.00 Molar | GI50 (MCF7; Homo sapiens): 25.1 µM | Log10GI50 (MCF7; […]): -4.6 Molar | Log10GI50 (OVCAR-8): -4.45 Molar | Log10LC50 (OVCAR-8): > -4.00 Molar | Log10TGI (OVCAR-8): > -4.00 Molar | GI50 (OVCAR-8; Homo sapiens): 35.5 µM | Log10GI50 (OVCAR-8; […]): -4.45 Molar | Log10GI50 (CAKI-1): -4.71 Molar | Log10LC50 (CAKI-1): > -4.00 Molar | Log10TGI (CAKI-1): > -4.00 Molar | GI50 (CAKI-1; Homo sapiens): 19.5 µM | Log10GI50 (CAKI-1; […]): -4.71 Molar | Log10GI50 (UACC-257): -4.15 Molar | Log10LC50 (UACC-257): > -4.00 Molar | Log10TGI (UACC-257): > -4.00 Molar | GI50 (UACC-257; Homo sapiens): 70.8 µM | Log10GI50 (UACC-257; […]): -4.15 Molar | Log10GI50 (MDA-MB-435): -5.46 Molar | Log10LC50 (MDA-MB-435): > -4.00 Molar | Log10TGI (MDA-MB-435): -4.81 Molar | GI50 (MDA-MB-435; Homo sapiens): 3.47 µM | Log10GI50 (MDA-MB-435; […]): -5.46 Molar | Log10GI50 (LOX IMVI): -5.18 Molar | Log10LC50 (LOX IMVI): > -4.00 Molar | Log10TGI (LOX IMVI): > -4.00 Molar | GI50 (LOX IMVI; Homo sapiens): 6.61 µM | Log10GI50 (LOX IMVI; […]): -5.18 Molar | Log10GI50 (NCI/ADR-RES): -4.55 Molar | Log10LC50 (NCI/ADR-RES): > -4.00 Molar | Log10TGI (NCI/ADR-RES): > -4.00 Molar | GI50 (NCI/ADR-RES; Homo sapiens): 28.2 µM | Log10GI50 (NCI/ADR-RES; […]): -4.55 Molar | Log10GI50 (MALME-3M): -4.42 Molar | Log10LC50 (MALME-3M): > -4.00 Molar | Log10TGI (MALME-3M): > -4.00 Molar | Log10GI50 (NCI-H226): -4.06 Molar | Log10LC50 (NCI-H226): > -4.00 Molar | Log10TGI (NCI-H226): > -4.00 Molar | GI50 (NCI-H226; Homo sapiens): 87.1 µM | Log10GI50 (NCI-H226; […]): -4.06 Molar | Log10GI50 (U251): -4.51 Molar | Log10LC50 (U251): > -4.00 Molar | Log10TGI (U251): > -4.00 Molar | GI50 (U251; Homo sapiens, U-251): 18.8 µM | Log10GI50 (U251; […]): -4.725 Molar | Log10GI50 (SNB-19): -4.53 Molar | Log10LC50 (SNB-19): > -4.00 Molar | Log10TGI (SNB-19): > -4.00 Molar | GI50 (SNB-19; Homo sapiens): 5.37 µM | Log10GI50 (SNB-19; […]): -5.27 Molar | Log10GI50 (NCI-H23): -4.33 Molar | Log10LC50 (NCI-H23): > -4.00 Molar | Log10TGI (NCI-H23): > -4.00 Molar | GI50 (NCI-H23; Homo sapiens): 46.8 µM | Log10GI50 (NCI-H23; […]): -4.33 Molar | Log10GI50 (SK-MEL-5): -4.34 Molar | Log10LC50 (SK-MEL-5): > -4.00 Molar | Log10TGI (SK-MEL-5): > -4.00 Molar | GI50 (SK-MEL-5; Homo sapiens): 45.7 µM | Log10GI50 (SK-MEL-5; […]): -4.34 Molar | Log10GI50 (786-0): -4.33 Molar | Log10LC50 (786-0): > -4.00 Molar | Log10TGI (786-0): > -4.00 Molar | GI50 (786-0; Homo sapiens): 46.8 µM | Log10GI50 (786-0; […]): -4.33 Molar | Log10GI50 (SN12C): -4.42 Molar | Log10LC50 (SN12C): > -4.00 Molar | Log10TGI (SN12C): > -4.00 Molar | GI50 (SN12C; Homo sapiens): 38 µM | Log10GI50 (SN12C; […]): -4.42 Molar | Log10GI50 (HL-60(TB)): -4.68 Molar | Log10LC50 (HL-60(TB)): > -4.00 Molar | Log10TGI (HL-60(TB)): -4.02 Molar | GI50 (HL-60(TB); Homo sapiens): 20.9 µM | Log10GI50 (HL-60(TB); […]): -4.68 Molar | Log10GI50 (ACHN): -4.07 Molar | Log10LC50 (ACHN): > -4.00 Molar | Log10TGI (ACHN): > -4.00 Molar | GI50 (ACHN; Homo sapiens): 85.1 µM | Log10GI50 (ACHN; […]): -4.07 Molar | fold less potent than (aR)-6 in NCI-60 screen (NCI 60 cell lines): approximately 10 fold | selectivity range (NCI 60 cell lines; NCI-60, GI50 level): 1.46 log units | Log10 Range at TGI (NCI 60 cell lines; NCI-60 cell line selectivity): 0.81 | GI50 (NCI 60 cell lines; NCI-60 mean): 27 µM | Mean TGI (NCI 60 cell lines; NCI-60 mean total growth inhibition): 91 µM | Delta Log10GI50 (NCI 60 cell lines; mean graph): 0.89 | Delta Log10LC50 (NCI 60 cell lines; mean graph): 0 | Delta Log10TGI (NCI 60 cell lines; mean graph): 0.77 | Range Log10GI50 (NCI 60 cell lines; mean graph): 1.46 | Range Log10LC50 (NCI 60 cell lines; mean graph): 0.0 | Range Log10TGI (NCI 60 cell lines; mean graph): 0.81 | _MID Log10GI50 (NCI 60 cell lines; mean graph midpoint): -4.57 Molar | _MID Log10LC50 (NCI 60 cell lines; mean graph midpoint): -4.0 Molar | _MID Log10TGI (NCI 60 cell lines; mean graph midpoint): -4.04 Molar | Log10GI50 (MDA-MB-468): -4.85 Molar | Log10LC50 (MDA-MB-468): > -4.00 Molar | Log10TGI (MDA-MB-468): > -4.00 Molar | GI50 (MDA-MB-468; Homo sapiens): 14.1 µM | Log10GI50 (MDA-MB-468; […]): -4.85 Molar
